Measurements from patent US10071103B2, “Treatments for resistant acne” (VYOME BIOSCIENCES PVT. LTD., priority 2014, dated 2018).
Values after ≈ are worked out from the molar mass of the structure shown. Where two headings read alike, the source gives them in different places.

Assays:
P. acnes MTCC 1951 = assay: MIC by micro broth dilution (Alamar blue), clindamycin-susceptible P. acnes; assay type: cell-based, Propionibacterium acnes; settings: for MIC: Cutibacterium acnes, MTCC1951; for Activity / bacterial killing, dose response curve (in words): clindamycin-susceptible MTCC 1951
Method in brief: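 P. acnes in BHI broth, inoculum adjusted to 0.5 McFarland and diluted 100-fold, exposed to serially diluted compound at 37° C. for 48-72 h under anaerobic conditions. Growth read by OD at 595 nm; MIC recorded after Alamar blue addition.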

P. acnes CCARM 9010 = assay: MIC by micro broth dilution (Alamar blue), clindamycin-resistant/nonresponsive P. acnes; assay type: cell-based, Propionibacterium acnes; settings: for Activity / bacterial killing, dose response curve (in words): clindamycin-nonresponsive CCARM 9010
IL-1β = assay: P. acnes-induced IL-1β release in THP-1 cells (ELISA); assay type: cell-based; settings: 25 μg/ml, 100% = P. acnes induced cells
Description: Method: Preparation of Stimulant for Inflammation: P. acnes culture suspension was prepared in PBS and the cell number in the suspension was adjusted to approximately 5×10^8 CFU/ml by measuring the cell density using a Densimat. The bacterial suspension was then heat killed at 80° C. for 30 min and stored at −80° C. until further use.
Cells were seeded in a 96-well format (2×10^5 THP-1 cells per well) in media containing 10% FBS. The cells were stimulated to induce inflammatory cytokines using 3 McFarland equivalent heat-killed P. acnes. Cells in control wells were treated with PBS. One hour after induction with P. acnes, test agents were added to the induced cells at appropriate concentrations to be tested (compound 91 at 25 μg/ml). The plates were incubated at 37° C. for 24 hours. After 24 h, the plates were centrifuged to pellet the cells and the supernatants were collected. The cell culture supernatants thus obtained were analyzed for levels of cytokines (IL-1α, IL-1β, IL-6 and IL-8) by ELISA using R&D Systems kits for individual cytokines following the manufacturer's instructions.

THP-1 cells = assay: Viability of THP-1 cells under treatment; assay type: cell-based; settings: 25 μg/ml of compound 91

Cc1ncc([N+](=O)[O-])n1CC(O)CN1CCN(c2cc3c(cc2F)c(=O)c(C(=O)O)c2n3C(C)S2)CC1 (stereo not shown) [Compound 91, 6-Fluoro-7-{4-[2-hydroxy-3-(2-methyl-5-nitro-imidazol-1-yl)-propyl]-piperazin-1-yl}-1-methyl-4-oxo-4H-2-thia-8b-aza-cyclobuta[a]naphthalene-3-carboxylic acid]
MIC (P. acnes MTCC 1951; Table 7, against P. acnes, read-out: MIC): 0.2 µg/mL (≈ 0.376 µM)
MIC (P. acnes MTCC 1951; read-out: MIC Susceptible P. acnes (1951) strain): 0.2 µg/mL (≈ 0.376 µM)
Activity / bacterial killing, dose response curve (in words) (P. acnes MTCC 1951): highly efficacious bacterial killing profile
Activity / bacterial killing, dose response curve (in words) (P. acnes MTCC 1951; listed as compound 91): lower MIC value and faster bacterial killing profile
MIC (P. acnes CCARM 9010; Cutibacterium acnes, CCARM9010, read-out: MIC Resistant P. acnes (9010) strain): 0.1 µg/mL (≈ 0.188 µM)
Activity / bacterial killing, dose response curve (in words) (P. acnes CCARM 9010): highly efficacious bacterial killing profile
Activity / bacterial killing, dose response curve (in words) (P. acnes CCARM 9010; listed as compound 91): lower MIC value and faster bacterial killing profile
Percentage reduction in P. acnes induced IL-1β release (IL-1β): 20.49%
Percentage reduction in P. acnes induced IL-1β release (IL-1β; listed as compound 91): 20-25%
Viability of THP-1 cells (THP-1 cells): 90%
